Among the data in US8697687B2, “Treating diseases mediated by blockade of the epithelial sodium channel with pyrazine-2-carboxamide derivatives” (Novartis AG, priority 2007, dated 2014) are IC50 values, retold here.

The target in this assay is T1, epithelial sodium channel (ENaC) (Homo sapiens, UniProt P37088+P51168+P51170).
T1 construct: host or cells: primary Human Bronchial Epithelial cells (HBECs), air-liquid interface culture
T1 sequence (P37088 1-669): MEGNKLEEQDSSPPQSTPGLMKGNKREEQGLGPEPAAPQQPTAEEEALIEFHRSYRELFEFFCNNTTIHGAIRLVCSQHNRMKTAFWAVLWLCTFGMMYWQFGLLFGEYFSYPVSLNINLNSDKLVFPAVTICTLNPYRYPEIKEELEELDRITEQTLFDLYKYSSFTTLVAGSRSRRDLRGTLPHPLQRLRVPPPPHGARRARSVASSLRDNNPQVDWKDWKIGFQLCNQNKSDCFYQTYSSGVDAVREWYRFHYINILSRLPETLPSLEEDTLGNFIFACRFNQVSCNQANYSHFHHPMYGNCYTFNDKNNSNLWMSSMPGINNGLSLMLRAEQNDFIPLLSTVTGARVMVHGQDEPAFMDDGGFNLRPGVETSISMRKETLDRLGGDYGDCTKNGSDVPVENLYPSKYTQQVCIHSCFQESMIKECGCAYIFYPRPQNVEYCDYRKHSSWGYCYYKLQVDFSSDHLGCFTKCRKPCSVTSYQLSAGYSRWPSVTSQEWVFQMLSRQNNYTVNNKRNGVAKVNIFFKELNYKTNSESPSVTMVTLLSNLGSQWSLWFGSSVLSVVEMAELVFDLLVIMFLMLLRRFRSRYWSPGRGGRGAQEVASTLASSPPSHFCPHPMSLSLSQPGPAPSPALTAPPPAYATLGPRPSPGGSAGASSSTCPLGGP
T1 sequence (P51168 1-640): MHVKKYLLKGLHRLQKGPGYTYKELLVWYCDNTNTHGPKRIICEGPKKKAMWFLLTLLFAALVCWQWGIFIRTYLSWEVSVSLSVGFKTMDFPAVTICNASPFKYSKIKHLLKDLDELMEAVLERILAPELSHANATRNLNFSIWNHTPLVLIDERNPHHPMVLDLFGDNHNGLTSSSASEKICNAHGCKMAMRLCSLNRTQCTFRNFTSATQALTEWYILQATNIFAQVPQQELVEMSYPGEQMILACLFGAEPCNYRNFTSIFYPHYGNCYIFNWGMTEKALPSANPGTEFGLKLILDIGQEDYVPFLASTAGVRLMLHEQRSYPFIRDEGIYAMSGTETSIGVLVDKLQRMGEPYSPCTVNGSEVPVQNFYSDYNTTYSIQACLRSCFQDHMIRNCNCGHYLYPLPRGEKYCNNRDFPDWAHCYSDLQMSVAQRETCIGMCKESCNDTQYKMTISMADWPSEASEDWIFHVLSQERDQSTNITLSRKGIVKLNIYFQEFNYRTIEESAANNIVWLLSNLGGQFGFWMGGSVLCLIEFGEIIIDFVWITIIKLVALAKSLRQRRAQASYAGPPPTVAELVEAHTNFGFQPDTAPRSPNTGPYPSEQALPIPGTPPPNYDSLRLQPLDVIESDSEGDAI
T1 sequence (P51170 1-649): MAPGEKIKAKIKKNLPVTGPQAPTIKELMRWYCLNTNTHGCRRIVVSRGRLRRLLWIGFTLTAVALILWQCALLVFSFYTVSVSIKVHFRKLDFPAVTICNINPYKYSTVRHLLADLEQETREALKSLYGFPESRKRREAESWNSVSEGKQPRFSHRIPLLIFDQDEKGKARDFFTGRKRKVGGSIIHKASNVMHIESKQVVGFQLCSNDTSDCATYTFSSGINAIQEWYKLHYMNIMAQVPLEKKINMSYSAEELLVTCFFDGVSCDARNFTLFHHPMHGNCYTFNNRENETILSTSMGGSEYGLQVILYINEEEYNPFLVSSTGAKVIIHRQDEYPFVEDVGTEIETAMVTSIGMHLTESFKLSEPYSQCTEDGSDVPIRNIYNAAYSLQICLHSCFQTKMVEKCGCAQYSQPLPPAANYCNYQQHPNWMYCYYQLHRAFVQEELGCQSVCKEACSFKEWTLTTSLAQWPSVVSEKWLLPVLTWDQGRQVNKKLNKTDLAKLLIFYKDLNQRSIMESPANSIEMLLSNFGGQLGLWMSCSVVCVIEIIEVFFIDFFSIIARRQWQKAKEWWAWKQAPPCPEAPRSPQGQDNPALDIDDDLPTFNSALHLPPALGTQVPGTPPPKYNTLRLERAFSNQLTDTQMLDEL
Put plainly: Short circuit current (ISC) measurements in Human Bronchial Epithelial cells, inhibition of amiloride-sensitive ISC. The format is cell-based. The settings on record: inhibition of the amiloride-sensitive ISC; Human Bronchial Epithelial cells (HBECs) at air-liquid interface; compound added to apical chamber; read-out: IC50. The method, then:
Compounds of formula (I) and their pharmaceutically acceptable salts, hereinafter referred to alternatively as “agents of the invention”, are useful as pharmaceuticals. In particular, the compounds have good ENaC blocker activity and may be tested in the following assays.
Human Bronchial Epithelial cells (HBECs) (Cambrex) were cultured under air-liquid interface conditions to provide a well differentiated mucociliary phenotype.
HBECs were cultured using a modification of the method described by Gray and colleagues (Gray et al., 1996). Cells were seeded in plastic T-162 flasks and were grown in bronchial epithelial cell growth medium (BEGM; Cambrex) supplemented with bovine pituitary extract (52 μg/mL), hydrocortisone (0.5 μg/mL), human recombinant epidermal growth factor (0.5 ng/mL), epinephrine (0.5 μg/mL), transferrin (10 μg/mL), insulin (5 μg/mL), retinoic acid (0.1 μg/mL), triiodothyronine ([…]), gentamycin (50 μg/mL) and amphotericin B (50 ng/mL). Medium was changed every 48 hours until cells were 90% confluent. Cells were then passaged and seeded (8.25×10^5 cells/insert) on polycarbonate Snapwell inserts (Costar) in differentiation media containing 50% DMEM in BEGM with the same supplements as above but without triiodothyronine and a final retinoic acid concentration of 50 nM (all-trans retinoic acid). Cells were maintained submerged for the first 7 days in culture, after which time they were exposed to an apical air interface for the remainder of the culture period. At this time, media was changed to DMEM:F12 media containing 2% v/v Ultroser G for the remainder of culture. Amphotericin B was removed from all media 3 feeds prior to use in the Using Chambers. Cells were used between days 7 and 21 after establishment of the apical-air interface. At all stages of culture, cells were maintained at 37° C. in 5% CO2 in an air incubator.
Short Circuit Current (ISC) Measurements
Snapwell inserts were mounted in Vertical Diffusion Chambers (Costar) and were bathed with continuously gassed Ringer solution (5% CO2 in O2; pH 7.4) maintained at 37° C. containing (in mM): 120 NaCl, 25 NaHCO3, 3.3 KH2PO4, 0.8 K2HPO4, 1.2 CaCl2, 1.2 MgCl2, and 10 glucose. The solution osmolarity was between 280 and 300 mOsmol/kg H2O for all physiological salt solutions used. Cells were voltage clamped to 0 mV (model EVC4000; WPI). RT was measured by applying a 1- or 2-mV pulse at 30-s intervals and calculating RT by Ohm's law. Data were recorded using a PowerLab workstation (ADInstruments).
Test compounds were prepared as a 10 mM stock solution in DMSO (95%). Serial 3-fold dilutions were freshly prepared in an appropriate vehicle (distilled H2O or Ringers solution). The initial concentration was added to the apical chamber as a 1000× concentrate in 5 μL, resulting in a final 1× concentration the 5 mL volume of the Ussing chamber. Subsequent additions of compound were added in a 3.3 μL volume of the 1000× serially diluted stock solution. At the completion of the concentration-response experiment, amiloride (10 μM) was added into the apical chamber to enable the total amiloride-sensitive current to be measured. An amiloride control IC50 was established at the start of each experiment.
Results are expressed as the mean % inhibition of the amiloride-sensitive ISC. Concentration-response curves were plotted and IC50 values generated using GraphPad Prism 3.02. Cell inserts were typically run in duplicate and the IC50 calculated on the mean % inhibition data.

Broadly, the IC50 is the midpoint of a concentration-inhibition curve. As to `Nc1nc(N)c(C(=O)N=C2NC3CCCCC3N2)nc1Cl` (stereo not shown) [Example 11, 3,5-Diamino-6-chloro-pyrazine-2-carboxylic acid (octahydro-benzoimidazol-2-ylidene)-amide], the IC50 was 1690 nM.

`CC(c1ccccc1)N1CCC2(CC1)CN/C(=N\C(=O)c1nc(Cl)c(N)nc1N)N2` (stereo not shown) [Example 246, 3,5-Diamino-6-chloro-pyrazine-2-carboxylic acid [8-(1-phenyl-ethyl)-1,3,8-triaza-spiro[4.5]dec-(2E)-ylidene]-amide]: the IC50 turned out to be 25 nM.

In the case of `Nc1nc(N)c(C(=O)/N=C2\NC[C@H](CCCNC(=O)Cc3ccccc3)N2)nc1Cl` [Example 34, 3,5-Diamino-6-chloro-pyrazine-2-carboxylic acid [(S)-4-(3-phenylacetylamino-propyl)-imidazolidin-(2E)-ylidene]-amide], the IC50 amounted to 95 nM.

Turning to `Nc1nc(N)c(C(=O)/N=C2\NCC3(CCN(C(=O)Cc4csc5ccccc45)CC3)N2)nc1Cl` [Example 44, 3,5-Diamino-6-chloro-pyrazine-2-carboxylic acid [8-(2-Benzo[b]thiophen-3-yl-acetyl)-1,3,8-triaza-spiro[4.5]dec-(2E)-ylidene]-Amide], the IC50 worked out at 29.5 nM.

With `CC(C)COC1CCN(S(=O)(=O)c2cccc(C(=O)N3CCC4(CC3)CN/C(=N\C(=O)c3nc(Cl)c(N)nc3N)N4)c2)CC1` [Example 126, 3,5-Diamino-6-chloro-pyrazine-2-carboxylic acid [8-[3-(4-isobutoxy-piperidine-1-sulfonyl)-benzoyl]-1,3,8-triaza-spiro[4.5]dec-(2E)-ylidene]-amide], the IC50 came to 25 nM.

For the compound `Cc1oc(-c2ccccc2)nc1COc1ccc(S(=O)(=O)N2CCC3(CC2)CN/C(=N\C(=O)c2nc(Cl)c(N)nc2N)N3)cc1` [Example 238, 3,5-Diamino-6-chloro-pyrazine-2-carboxylic acid [8-[4-(5-methyl-2-phenyl-oxazol-4-ylmethoxy)-benzenesulfonyl]-1,3,8-triaza-spiro[4.5]dec-(2E)-ylidene]-amide], the IC50 was found to be 119 nM.

Take `Nc1nc(N)c(C(=O)/N=C2\NCC3(CCN(C(=O)C4CC(=O)N(CCCn5cccc5)C4)CC3)N2)nc1Cl` (stereo not shown) [Example 45, 3,5-Diamino-6-chloro-pyrazine-2-carboxylic acid [8-[5-oxo-1-(3-pyrrol-1-yl-propyl)-pyrrolidine-3-carbonyl]-1,3,8-triaza-spiro[4.5]dec-(2E)-ylidene]-amide]: the half-maximal inhibitory concentration (IC50) came to 42.6 nM.

`Nc1nc(N)c(C(=O)/N=C2\NC[C@H](CCCCNS(=O)(=O)Cc3ccccc3)N2)nc1Cl` [Example 35, 3,5-Diamino-6-chloro-pyrazine-2-carboxylic acid [(S)-4-(4-phenylmethanesulfonylamino-butyl)-imidazolidin-(2E)-ylidene]-amide]: the IC50 is 31 nM.

Take `CC(C)OCCCNS(=O)(=O)c1cccc(C(=O)N2CCC3(CC2)CN/C(=N\C(=O)c2nc(Cl)c(N)nc2N)N3)c1` [Example 41, 3,5-Diamino-6-chloro-pyrazine-2-carboxylic acid [8-[3-(3-isopropoxy-propylsulfamoyl)-benzoyl]-1,3,8-triaza-spiro[4.5]dec-(2E)-ylidene]-amide]: the IC50 is 9.5 nM.

Consider `Nc1nc(N)c(C(=O)/N=C2\NCC3(CCN(C(=O)c4cn(S(=O)(=O)c5ccccc5)c5ccccc45)CC3)N2)nc1Cl` [Example 40, 3,5-Diamino-6-chloro-pyrazine-2-carboxylic acid [8-(1-benzenesulfonyl-1H-indole-3-carbonyl)-1,3,8-triaza-spiro[4.5]dec-(2E)-ylidene]-amide], for which the IC50 was 5.5 nM.

As for `Nc1nc(N)c(C(=O)/N=C2\NCC3(CC4CCC(C3)N4C(=O)c3cccc4[nH]ccc34)N2)nc1Cl` (stereo not shown) [Example 252, (E)-N-(8-(1H-indole-4-carbonyl)-8-azaspiro[bicyclo[3.2.1]octane-3,4′-imidazolidine]-2′-ylidene)-3,5-diamino-6-chloropyrazine-2-carboxamide], the concentration for half-maximal inhibition (IC50) amounted to 28 nM.

As for `Cc1ccc(S(=O)(=O)N[C@@H](Cc2ccccc2)C(=O)N2CCC3(CC2)CN/C(=N\C(=O)c2nc(Cl)c(N)nc2N)N3)cc1` [Example 39, 3,5-Diamino-6-chloro-pyrazine-2-carboxylic acid [8-[(S)-3-phenyl-2-(toluene-4-sulfonylamino)-propionyl]-1,3,8-triaza-spiro[4.5]dec-(2E)-ylidene]-amide], the concentration for half-maximal inhibition (IC50) turned out to be 5.5 nM.

As to `Cc1nc(-c2ccccc2)ncc1C(=O)N1CCC2(CC1)CN/C(=N\C(=O)c1nc(Cl)c(N)nc1N)N2` [Example 58, 3,5-Diamino-6-chloro-pyrazine-2-carboxylic acid [8-(4-methyl-2-phenyl-pyrimidine-5-carbonyl)-1,3,8-triaza-spiro[4.5]dec-(2E)-ylidene]-amide], the half-maximal inhibitory concentration (IC50) came out at 143 nM.
